Measured values taken from paper PMC7156724, “Potent BRD4 inhibitor suppresses cancer cell-macrophage interaction” (Nature Communications, 2020).
“And” between values parts separate entries of the source, which are not always exact repeats. Equal entries are not always repeated.

Experiments:
BRD4 (BD1+BD2) = target: T1, BRD4 (BD1+BD2) (Homo sapiens, UniProt O60885); assay: BRD4 (BD1+BD2) TR-FRET binding assay; conditions: for Biochemical activity against BRD4 (BD1 + BD2): replicates; for IC50: average IC50, nM, read-out: IC50, biochemical activity against BRD4 (BD1 + BD2)
T1 construct: purchased BPS 32612
Source text: 2. BRD4 binding assay. The inhibitory effects of NHWD-530, NHWD-540, NHWD- […]
(BPS, Cat # 32612) per manufacturer’s instructions. […]

[1] = system: NCI-H211 small cell lung cancer (SCLC) cells; assay: AlamarBlue assay, NCI-H211; type: cell-based; conditions: for Cellular activity in SCLCs (H211), alamarBlue: Fig.1e, replicates; for IC50: Homo sapiens, NCI-H211, 72 h, 72 h treatment, nM, read-out: IC50, cellular activity in NCI-H211 (alamarBlue)
Description: (§1) 3. AlamarBlue assay. AlamarBlue was made by resazurin sodium salt (Sigma, Cat
(§2) # 199303) dissolved in PBS.
(§3) NCI-H211, MDA-MB231 and A375 cells were plated in 96-well plates at approximately 30% confluence and left overnight to adhere. In the following day, […]
(§4) of treatment, 10 μl AlamarBlue reagent (0.3 mg/ml) was added to each well, and after 18h, the florescence intensity in each well was measured using a top-reading fluorescent plate reader with excitation at 530 nm and emission at 590 nm. […]

[2] = system: MDA-MB231 triple negative breast cancer (TNBC) cells; assay: AlamarBlue assay, MDA-MB231; type: cell-based, human; conditions: for Cellular activity in TNBCs (MDA-MB231), alamarBlue: Fig.1f, replicates; for IC50: Homo sapiens, MDA-MB-231, 72 h, 72 h treatment, nM, read-out: IC50, cellular activity in MDA-MB231 (alamarBlue)
Description: as §1, §2, §3, §4

[3] = Fig.1d, concentration(nM) 0.0021442
[4] = Fig.1d, concentration(nM) 0.061236
[5] = Fig.1d, concentration(nM) 0.103
[6] = Fig.1d, concentration(nM) 0.59176
[7] = Fig.1d, concentration(nM) 1.19382
[8] = Fig.1d, concentration(nM) 1.79588
[9] = Fig.1d, concentration(nM) 2.39794
[10] = concentration column prints 2.52288

| IC50 (BRD4 (BD1+BD2)) [nM] | Biochemical activity against BRD4 (BD1 + BD2) (BRD4 (BD1+BD2); [3]) | Biochemical activity against BRD4 (BD1 + BD2) (BRD4 (BD1+BD2); [4]) | Biochemical activity against BRD4 (BD1 + BD2) (BRD4 (BD1+BD2); [5]) | Biochemical activity against BRD4 (BD1 + BD2) (BRD4 (BD1+BD2); [6]) | Biochemical activity against BRD4 (BD1 + BD2) (BRD4 (BD1+BD2); [7]) | Biochemical activity against BRD4 (BD1 + BD2) (BRD4 (BD1+BD2); [8]) | Biochemical activity against BRD4 (BD1 + BD2) (BRD4 (BD1+BD2); [9]) | Biochemical activity against BRD4 (BD1 + BD2) (BRD4 (BD1+BD2); Fig.1d, concentration(nM) 3) | IC50 [1] [nM] | SMILES | Cellular activity in SCLCs (H211), alamarBlue ([1]; concentration 0.0169701) | Cellular activity in SCLCs (H211), alamarBlue ([1]; concentration 0.0398488) | Cellular activity in SCLCs (H211), alamarBlue ([1]; concentration 0.137272) | Cellular activity in SCLCs (H211), alamarBlue ([1]; concentration 0.614394) | Cellular activity in SCLCs (H211), alamarBlue ([1]; concentration 1.09152) | Cellular activity in SCLCs (H211), alamarBlue ([1]; concentration 1.56864) | Cellular activity in SCLCs (H211), alamarBlue ([1]; concentration 2.04576) | Cellular activity in SCLCs (H211), alamarBlue ([1]; concentration 3) | Cellular activity in SCLCs (H211), alamarBlue [1, 10] | Cellular activity in TNBCs (MDA-MB231), alamarBlue ([2]; concentration 0.15) | further results |
| --- | --- | --- | --- | --- | --- | --- | --- | --- | --- | --- | --- | --- | --- | --- | --- | --- | --- | --- | --- | --- | --- |
| 10.2 | – | – | – | – | – | – | – | – | – | Cc1nnn(C)c1-c1cnc2c3c4ccn(C)c4ccc3n([C@H](c3ccccc3)C3CCOCC3)c2c1 [NHWD-830] | – | – | – | – | – | – | – | – | – | – | Biochemical activity against BRD4 (BD1 + BD2) (BRD4 (BD1+BD2); Fig.1b, concentration(nM) 0.0339849): 0.8628 and 1.4579; Biochemical activity against BRD4 (BD1 + BD2) (BRD4 (BD1+BD2); Fig.1b, concentration(nM) 0.137272): 6.575 and 2.559; Biochemical activity against BRD4 (BD1 + BD2) (BRD4 (BD1+BD2); Fig.1b, concentration(nM) 0.614394): 10.2946 and 5.683; Biochemical activity against BRD4 (BD1 + BD2) (BRD4 (BD1+BD2); Fig.1b, concentration(nM) 1.09152): 69.3038 and 62.4692; Biochemical activity against BRD4 (BD1 + BD2) (BRD4 (BD1+BD2); Fig.1b, concentration(nM) 1.56864): 79.3216 and 83.6358; Biochemical activity against BRD4 (BD1 + BD2) (BRD4 (BD1+BD2); Fig.1b, concentration(nM) 2.04576): 95.8346 and 94.942; Biochemical activity against BRD4 (BD1 + BD2) (BRD4 (BD1+BD2); Fig.1b, concentration(nM) 2.52288): 100.744 and 99.5537; Biochemical activity against BRD4 (BD1 + BD2) (BRD4 (BD1+BD2); Fig.1b, concentration(nM) 3): 101.346 and 101.785 |
| 28.3 ± 1.45 | 6.699 and 2.7152 | 2.407 and 5.845 | 1.577 and 18.3661 | 2.146 and 9.5447 | 15.5205 and 30.3178 | 82.9618 and 83.2464 | 99.4664 and 98.6128 | 101.174 and 100.889 | 38 ± 1.58 | Cc1nnn(C)c1-c1cnc2c3cc4c(cnn4C)cc3n([C@H](c3ccccc3)C3CCOCC3)c2c1 [NHWD-840] | 11.62 and 22.01 | 7.96 and 8.04 | 3.53 and 13.11 | 11.24 and 2.1 | 18.38 and 12.66 | 47.24 and 47.49 | 87.44 and 87.79 | 95.52 and 94.98 | 93.3 and 93.73 | 9.03 and 8.43 | Cellular activity in TNBCs (MDA-MB231), alamarBlue ([2]; concentration 0.6): 17.61 and 17.32; Cellular activity in TNBCs (MDA-MB231), alamarBlue ([2]; concentration 1): 35.92 and 25.61; Cellular activity in TNBCs (MDA-MB231), alamarBlue ([2]; concentration 1.5): 53.39 and 55.36; Cellular activity in TNBCs (MDA-MB231), alamarBlue ([2]; concentration 2): 70.13 and 73.2; Cellular activity in TNBCs (MDA-MB231), alamarBlue ([2]; concentration 2.5): 91.51 and 91.02; Cellular activity in TNBCs (MDA-MB231), alamarBlue ([2]; concentration 3): 94.65 and 95.19; Cellular activity in TNBCs (MDA-MB231), alamarBlue ([2]; concentration -0.3): 6.21 and 5.27; Cellular activity in TNBCs (MDA-MB231), alamarBlue ([2]; concentration -0.9): 2.77 and 4.58; IC50 [2]: 31.6 ± 1.5 nM |
| 20.6 ± 1.31 | 0.1541 and 1.269 | 12.3903 and 11.5366 | 4.399 and 8.952 | 7.837 and 3 | 31.456 and 32.5943 | 96.9054 and 95.198 | 100.036 and 100.889 | 99.751 and 100.889 | 16 ± 1.21 | Cc1nnn(C)c1-c1cnc2c3cc4cnn(C)c4cc3n([C@H](c3ccccc3)C3CCOCC3)c2c1 [NHWD-850] | 0.35 and 1.87 | 0.32 and 1.84 | 0.23 and -0.84 | 7.16 and 14.38 | 35.94 and 34.48 | 89.1 and 88.35 | 90.09 | 89.78 and 89.22 | 89.03 and 89.34 | 15.75 and 17.7 | Cellular activity in TNBCs (MDA-MB231), alamarBlue ([2]; concentration 0.6): 25.28 and 23.6; Cellular activity in TNBCs (MDA-MB231), alamarBlue ([2]; concentration 1): 46.11 and 48.16; Cellular activity in TNBCs (MDA-MB231), alamarBlue ([2]; concentration 1.5): 71.17 and 69.3; Cellular activity in TNBCs (MDA-MB231), alamarBlue ([2]; concentration 2): 82.44 and 82.62; Cellular activity in TNBCs (MDA-MB231), alamarBlue ([2]; concentration 2.5): 86.67 and 86.03; Cellular activity in TNBCs (MDA-MB231), alamarBlue ([2]; concentration 3): 88.63 and 88.4; Cellular activity in TNBCs (MDA-MB231), alamarBlue ([2]; concentration -0.3): 7.16 and 12.83; Cellular activity in TNBCs (MDA-MB231), alamarBlue ([2]; concentration -0.9): 4.44 and 11.66; IC50 [2]: 14.5 ± 1.16 nM |
| 9.33 ± 0.97 | 1.269 and 4.138 | 4.399 and 1.862 | 3 and 0.4387 | 12.3903 and 19.5044 | 74.9941 and 70.1565 | 100.036 and 99.751 | 101.174 and 100.605 | 100.889 and 100.32 | 8.06 ± 0.91 | Cc1nnn(C)c1-c1cnc2c3c4c(ccc3n([C@H](c3ccccc3)C3CCOCC3)c2c1)cnn4C [NHWD-860] | 1.74 and 11.45 | 4.56 and 9.08 | 4.2 and 14.84 | 15.53 and 29.79 | 68.35 and 72.54 | 88.44 and 89.49 | 90.64 and 90.52 | 89.32 and 90.99 | 89.13 and 90.21 | 14.34 and 13.82 | Cellular activity in TNBCs (MDA-MB231), alamarBlue ([2]; concentration 0.6): 35.72 and 34.62; Cellular activity in TNBCs (MDA-MB231), alamarBlue ([2]; concentration 1): 67.92 and 71.9; Cellular activity in TNBCs (MDA-MB231), alamarBlue ([2]; concentration 1.5): 82.83 and 82.68; Cellular activity in TNBCs (MDA-MB231), alamarBlue ([2]; concentration 2): 87.1 and 88.94; Cellular activity in TNBCs (MDA-MB231), alamarBlue ([2]; concentration 2.5): 87.8 and 87.94; Cellular activity in TNBCs (MDA-MB231), alamarBlue ([2]; concentration 3): 90.46 and 89.59; Cellular activity in TNBCs (MDA-MB231), alamarBlue ([2]; concentration -0.3): 5.89 and 8.33; Cellular activity in TNBCs (MDA-MB231), alamarBlue ([2]; concentration -0.9): 3.7 and 7.12; IC50 [2]: 7.08 ± 0.85 nM |
